Measured values as given in patent US20100015128A1, “GRP78 as a Predictor of Responsiveness to Therapeutic Agents” (UNIVERSITY OF SOUTHERN CALIFORNIA, priority 2006, published 2010).
Values belong to the molecule of their own block, whether it stands above or below them. d = 2'-deoxy (DNA); r = 2'-OH (RNA)

Assays:
BIK [1] = assay: siRNA knockdown in MCF-7/BUS cells, Western blot for BIK; type: cell-based, human; details: estrogen starvation, vs control siRNA
Description: (§1) Western blots and quantitation. The Western blots were done as described (Lee, Methods 35:373-81 (2005)). The primary antibodies were goat anti-BIK (N-19, Santa Cruz Biotechnology, Santa Cruz, Calif.), rat anti-Grp78 (76-E6, Santa Cruz Biotechnology), rat anti-GRP94, rabbit anti-calnexin, rabbit anti-calreticulin (Stressgen, Ann Arbor, Mich.), mouse anti-Flag M2, mouse anti-poly(ADP-ribose) polymerase (PARP; F-2, Santa Cruz Biotechnology, Santa Cruz, Calif.), and mouse anti-h-actin (Sigma-Aldrich, St. Louis, Mo.). Anti-h-actin was diluted at 1:2,000; anti-BIK at 1:500; and other antibodies at 1:1,000. Respective horseradish peroxidase-conjugated secondary antibodies (Santa Cruz Biotechnology, Santa Cruz, Calif.) at 1:1,000 dilution were used. The Western blots were quantitated by Fluor-S® MultiImager (Bio-Rad, Hercules, Calif.) according to the manufacturer's instructions. All quantitations were normalized against h-actin.
(§2) Small interfering RNA. The siRNA against Grp78 is 5′-gagcgcauugauacuagadTdT-3′ (SEQ ID NO:1) as described (Tsutsumi et al., Oncogene 25:1018-29 (2006)). The siRNA against Bik is 5′-[…]-3′ (SEQ ID NO:2) (Hur et al., PNAS 101:2351-6 (2004)). The control siRNA is Silencer Negative Control #3 siRNA (Ambion, Foster City, Calif.) composed of a 19-bp scrambled sequence without significant homology to any known gene sequences from mouse, rat, or human. […]

PARP = PARP cleavage by Western blot in estrogen-starved cells; type: cell-based, human; details: MCF-7/BUS cells, estrogen starvation; for PARP cleavage: vs control siRNA
Method: In FIG. 8A, cell lysates from MCF-7/BUS cells transfected with siGrp78 oligomers or control siRNA (siCtrl) for 24 hours and subsequently cultured in regular or estrogen-free medium (ES) for 24 hours were subjected to SDS-PAGE and Western blotting to probe for levels of GRP78, GRP94 and β-actin. In FIG. 8B, MCF-7/BUS cells were cultured either in regular or in estrogen-free (ES) medium for 24 hours after transfection of siGrp78 or siCtrl as indicated. The percent of apoptotic cells was assessed by mitochondrial membrane potential staining. The standard errors are indicated. In FIG. 8C, MCF-7/BUS cells were transfected with control siRNA, siGrp78, or siBik, alone or in combination as indicated for 24 hours and then cultured in ES medium for 24 hours. The total amount of siRNA in each condition was adjusted to be the same by addition of siCtrl. Cell lysates were collected and subjected to SDS-PAGE and probed for levels of GRP78, BIK and β-actin by Western blotting. In FIG. 8D, cell lysates from FIG. 8C were subjected to SDS-PAGE and Western blotted with anti-PARP antibody. The Western signal of full-length PARP and apoptosis-signature fragment were quantitated by Fluor-S™ MultiImager (Bio-Rad, Hercules, Calif.). The relative PARP cleavages are shown with the PARP cleavage in cells transfected with control siRNA set as 1. Columns in FIGS. 8B and 8D represent the mean from three or two experiments, respectively. Standard error: * p<0.05, ** p<0.01.
Cell lines and culture conditions. The estrogen-dependent cell line MCF-7/BUS was provided by A. M. Soto (Tufts University, Medford, Mass.) and has been described (Soto et al., Environ. Health Perspect. 103:113-22 (1995)). The human embryonic kidney 293T cells and MCF-7/BUS cells were maintained in DMEM supplemented with 10% fetal bovine serum. […]
Western blots and quantitation. […] The Western blots were quantitated by Fluor-S® MultiImager (Bio-Rad, Hercules, Calif.) according to the manufacturer's instructions. All quantitations were normalized against h-actin.

BIK [2] = assay: BIK protein induction under stress conditions (Western blot); type: cell-based, human
Description: (§3) Cell lines and culture conditions. The estrogen-dependent cell line MCF-7/BUS was provided by A. M. Soto (Tufts University, Medford, Mass.) and has been described (Soto et al., Environ. Health Perspect. 103:113-22 (1995)). The human embryonic kidney 293T cells and MCF-7/BUS cells were maintained in DMEM supplemented with 10% fetal bovine serum. Estrogen starvation of MCF-7/BUS cells was done as described (Hur et al., PNAS 101:2351-6 (2004)). Briefly, the cells were washed thrice with phenol red-free DMEM and incubated in washing medium at 37° C. for 60 minutes. The MCF-7/BUS cells were then cultured in phenol red-free DMEM supplemented with 5% charcoal/dextran-stripped fetal bovine serum for 24 to 72 hours as indicated. For etoposide treatment, the cells were incubated with 50 μmol/L etoposide for 6 hours and cultured for another 24 hours before harvest.
as §1

MCF-7/BUS cells = assay: Mitochondrial membrane potential staining (apoptosis); type: cell-based, human
Description: as §3
For construction of the adenovirus expression vectors, either GFP or a His-tagged full-length hamster Grp78 cDNA was subcloned into an adenoviral vector and its expression was driven by the cytomegalovirus promoter. […] For mitochondrial membrane potential staining, because GFP interferes with the green fluorescence of this assay, the adenovirus empty vector was used as the negative control. […]
Cell death and apoptotic assays. […] The cell cultures were then washed with PBS and examined under a fluorescence microscope. […]

GRP94 [3] = assay: siRNA knockdown in MCF-7/BUS cells, Western blot for GRP94; type: cell-based, human; details: transient transfection
Description: as §1, §2

GRP78 = assay: siRNA knockdown in MCF-7/BUS cells, Western blot for Grp78; type: cell-based, human; details: transient transfection, vs control siRNA
Description: as §1, §2

endogenous BIK (human) = endogenous BIK (human) (UniProt Q13323); assay: cell-based or functional assay
Flag-tagged BIK-b5TM = Flag-tagged BIK-b5TM (UniProt Q13323); assay: cell-based or functional assay
GRP94 [4] = biological target: GRP94 (human, UniProt P14625 22-803); assay: co-immunoprecipitation with anti-BIK from 293T lysate, Western blot
Sequence of GRP94 (human, UniProt P14625 22-803) (P14625 22-803 limits assumed): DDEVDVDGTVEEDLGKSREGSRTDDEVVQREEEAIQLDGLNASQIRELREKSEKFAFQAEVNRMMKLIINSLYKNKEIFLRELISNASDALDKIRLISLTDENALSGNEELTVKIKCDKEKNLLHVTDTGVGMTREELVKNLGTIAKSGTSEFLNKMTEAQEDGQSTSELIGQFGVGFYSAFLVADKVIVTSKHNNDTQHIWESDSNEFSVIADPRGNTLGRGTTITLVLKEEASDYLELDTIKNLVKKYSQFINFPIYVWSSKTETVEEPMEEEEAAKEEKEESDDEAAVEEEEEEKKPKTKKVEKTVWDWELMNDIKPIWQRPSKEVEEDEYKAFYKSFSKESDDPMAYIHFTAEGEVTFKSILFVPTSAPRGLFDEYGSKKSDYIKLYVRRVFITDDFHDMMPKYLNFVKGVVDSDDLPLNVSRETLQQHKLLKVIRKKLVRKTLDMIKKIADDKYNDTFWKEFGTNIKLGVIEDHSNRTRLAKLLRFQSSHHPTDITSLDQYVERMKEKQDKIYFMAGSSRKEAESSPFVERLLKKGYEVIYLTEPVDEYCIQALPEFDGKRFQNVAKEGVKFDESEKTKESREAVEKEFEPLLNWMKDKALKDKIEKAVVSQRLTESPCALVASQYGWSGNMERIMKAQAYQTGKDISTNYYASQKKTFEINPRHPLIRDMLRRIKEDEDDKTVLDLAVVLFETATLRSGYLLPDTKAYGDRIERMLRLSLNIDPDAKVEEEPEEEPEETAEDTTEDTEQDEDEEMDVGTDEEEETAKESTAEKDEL
Method: (§4) FIGS. 5A to 5D show selective association of endogenous BIK with GRP78. In FIG. 5A, 293T cells were either non-treated or treated with 50 μM etoposide (Etop) for 6 hours and were harvested 24 hours later. MCF-7/BUS cells were cultured either in regular DMEM or in estrogen-free DMEM for 48 hours. Western blots of total protein lysates from these cells were performed with antibodies against BIK and β-actin. In FIG. 5B, cell lysates prepared from control and Etop-treated 293T cells were immunoprecipitated with anti-BIK or normal IgG The immunoprecipitates were applied in parallel with input lysates to SDS-PAGE and Western blotted with antibodies against GRP78, GRP94, calnexin, calreticulin and BIK. […] In FIG. 5D, lysates of 293T cells were incubated with GST-GRP78, GST-BIK, or GST linked beads. The bound proteins were resolved by SDS-PAGE and probed for GRP78 or BIK by Western blotting.
(§5) Communoprecipitation assays. The coimmunoprecipitation assays were done as described (Reddy et al., J. Biol. Chem. 278:20915-24 (2003)). Briefly, 500 μg of total protein extract from each sample were pretreated with protein G-Sepharose beads (Upstate, Chicago, Ill.), followed by incubation with 5 Ag of goat anti-BIK antibody (N-19, Santa Cruz Biotechnology, Santa Cruz, Calif.) or mouse anti-Flag M2 antibody (Sigma-Aldrich, St. Louis, Mo.). For negative controls, the respective goat or mouse immunoglobulin G (IgG; Santa Cruz Biotechnology, Santa Cruz, Calif.) was used.

calreticulin = biological target: T1, calreticulin (human, UniProt P27797 18-417); assay: as above
T1 sequence (looked up): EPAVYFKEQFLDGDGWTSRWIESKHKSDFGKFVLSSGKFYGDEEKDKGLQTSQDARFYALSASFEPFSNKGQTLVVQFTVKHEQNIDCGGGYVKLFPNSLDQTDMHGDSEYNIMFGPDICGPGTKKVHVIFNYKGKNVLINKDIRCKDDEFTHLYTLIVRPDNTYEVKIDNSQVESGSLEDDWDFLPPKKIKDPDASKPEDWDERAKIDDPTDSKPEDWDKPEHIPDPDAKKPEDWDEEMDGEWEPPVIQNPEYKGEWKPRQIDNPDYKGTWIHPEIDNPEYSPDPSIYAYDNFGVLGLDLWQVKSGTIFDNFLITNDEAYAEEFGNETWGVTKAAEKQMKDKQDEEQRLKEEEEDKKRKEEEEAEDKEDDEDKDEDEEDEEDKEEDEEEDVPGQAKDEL
Method: as §4, §5

calnexin = biological target: T2, calnexin (human, UniProt P27824 21-592); assay: as above
T2 sequence (looked up): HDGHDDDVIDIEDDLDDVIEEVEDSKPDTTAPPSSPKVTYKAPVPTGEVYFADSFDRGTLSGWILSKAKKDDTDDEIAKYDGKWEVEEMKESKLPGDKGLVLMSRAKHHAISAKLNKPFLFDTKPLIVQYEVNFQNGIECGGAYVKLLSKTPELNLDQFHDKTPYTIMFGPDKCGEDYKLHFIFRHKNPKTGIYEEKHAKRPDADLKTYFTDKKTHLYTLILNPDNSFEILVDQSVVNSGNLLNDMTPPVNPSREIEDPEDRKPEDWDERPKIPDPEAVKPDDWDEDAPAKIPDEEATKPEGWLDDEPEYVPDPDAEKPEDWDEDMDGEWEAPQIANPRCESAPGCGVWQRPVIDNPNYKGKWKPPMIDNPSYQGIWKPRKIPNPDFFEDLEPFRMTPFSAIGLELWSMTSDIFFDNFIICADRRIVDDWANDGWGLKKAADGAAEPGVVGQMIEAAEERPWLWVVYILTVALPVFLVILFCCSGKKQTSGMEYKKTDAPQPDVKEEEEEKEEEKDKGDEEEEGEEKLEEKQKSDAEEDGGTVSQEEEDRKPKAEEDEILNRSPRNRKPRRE
Method: as §4, §5

GST protein = biological target: T3, GST protein (UniProt P08515 1-218 = GST); assay: GST pull-down from 293T total cell extract, Western blot
T3 construct: Negative control in the pull-down assays; also called Glutathione S-transferase
T3 sequence (P08515 whole entry): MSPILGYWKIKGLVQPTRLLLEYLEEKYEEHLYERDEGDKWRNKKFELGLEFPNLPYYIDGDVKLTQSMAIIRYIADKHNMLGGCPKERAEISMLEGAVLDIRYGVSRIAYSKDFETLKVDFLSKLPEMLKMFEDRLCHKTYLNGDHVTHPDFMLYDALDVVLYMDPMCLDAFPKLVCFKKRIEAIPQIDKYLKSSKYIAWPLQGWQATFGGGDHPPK
Method: as §4
Glutathione S-transferase pull-down assays. Glutathione S-transferase (GST)-Grp78 and GST-BIK were constructed by subcloning full-length hamster Grp78 cDNA and human BIK into the BamH1/XhoI and BamH1/Sal1 sites of pGEX 4T1, respectively (Pharmacia Biotech, Piscataway, N.J.). Conditions for the GST pull-down assays have been described (Wu and Lee, Nucleic Acids Res. 26:4837-45 (1998)) with the following modifications. […]

Molecule: siRNA against Bik: siRNA 5′-aagaccccucuccagagacau-3′ (SEQ ID NO:2) (AAGACCCCUCUCCAGAGACAU; RNA, backbone not given here)
- expression of BIK protein (BIK [1]): substantially reduced
- enhanced PARP cleavage mediated by knockdown of Grp78 (PARP; BIK knockdown combined with Grp78 knockdown): substantially reduced
- PARP cleavage (PARP): decreased

Molecule: tunicamycin
- induction of BIK by ER stress inducers (BIK [2]; human cells): do not induce

Molecule: COc1cc([C@@H]2c3cc4c(cc3[C@@H](O[C@@H]3O[C@@H]5CO[C@@H](C)O[C@H]5[C@H](O)[C@H]3O)[C@H]3COC(=O)[C@H]23)OCO4)cc(OC)c1O [etoposide]
- level of BIK protein (BIK [2]; 293T cells, 50 μmol/L etoposide 6 hours, harvested 24 hours later): substantially elevated

Molecule: siRNA against Grp78: siRNA 5′-gagcgcauugauacuagadTdT-3′ (SEQ ID NO:1) (guide GAGCGCAUUGAUACUAGATT; sugars from the 5' end r18 d2, backbone not given here)
- effect on mitochondrial membrane potential (MCF-7/BUS cells; MCF-7/BUS cells in normal culture medium): little effect
- apoptosis (MCF-7/BUS cells; MCF-7/BUS cells, estrogen starvation 24 hours, vs control siRNA): marked increase
- PARP cleavage (PARP): increased
- expression of GRP94 (GRP94 [3]): no effect
- level of Grp78 protein (GRP78): substantially reduced

- decrease in BAX activation by estrogen starvation (FACS with BAX conformation specific antibody) in MCF-7/BUS cells (endogenous BIK (human)): 48%
Molecule: His-tagged full-length hamster Grp78 (Ad-Grp78) (from UniProt P07823 19-654)

- fold decrease in apoptosis (mitochondrial membrane potential staining) in transfected 293T cells (Flag-tagged BIK-b5TM): 3 fold
Molecule: His-tagged Grp78

- binding result (GRP94 [4]): no binding
- binding result (calreticulin): no binding
- binding result (calnexin): no binding
- binding result (GST protein): no binding
B1: endogenous BIK (other, human, UniProt Q13323 1-160, looked up)
chain: MSEVRPLSRDILMETLLYEQLLEPPTMEVLGMTDSEEDLDPMEDFDSLECMEGSDALALRLACIGDEMDVSLRAPRLAQLSEVAMHSLGLAFIYDQTEDIRDVLRSFMDGFTTLKENIMRFWRSPNPGSWVSCEQVLLALLLLLALLLPLLSGGLHLLLK
notes: Endogenous protein from total cell extract of the human cell line 293T, untreated or etoposide-treated; also called BIK protein
